Test results from publication PMC9231138, “Dihydrotanshinone I Enhances Cell Adhesion and Inhibits Cell Migration in Osteosarcoma U−2 OS Cells through CD44 and Chemokine Signaling” (Molecules, 2022).

Columns and labels:
[1] = test system: slug; experiment: RT-PCR slug mRNA in U−2 OS cells; format: cell-based, human; conditions: 24 h
Protocol: (§1) Total RNA within cells was extracted by the RNAeasy™ Animal Long RNA Isolation Kit with Spin Column (Shanghai, Beyotime); the concentrations and OD260/OD280 and OD230/OD260 values were measured by NanoDrop. Five micrograms of RNA was used for reverse transcription; each sample was diluted to 16 μL, and 4 μL of synthesized premix solution (5×) was added, then the mixtures were placed in a 42 °C water bath for 10 min, then an 80 °C water bath for 10 min to deactivate reverse transcriptase. After reverse transcription, each sample was diluted to 140 μL. PCR amplification was carried out by the ABI700 real-time PCR system, and the amplification reaction was detected with a SYBR probe. After PCR, actin and GAPDH were used as internal references, and the relative standard curve method (2^−ΔΔcT) determined the relative expression of mRNA.

[2] = test system: CD44; experiment: Western blot of 80 kDa and 70 kDa CD44; format: cell-based, human; conditions: DS−1 2.5, 5.0, and 7.5 µM for 24 h
Protocol: (§2) Sample preparation: U−2 OS cells seeded in 10 cm Petri dishes were collected and washed with ice-cold PBS and RIPA lysis buffer with PMAF; phosphatase inhibitor was added, and the tubes were placed on ice for 30 min and vortexed for 30 s at intervals of 10 min. The samples were centrifuged at 12,000 g at 4 °C for 15 min, and the supernatants were collected in new centrifuge tubes. The protein samples were placed on ice, and the concentration of each protein sample was measured by the BCA kit (Thermo). The protein concentration was adjusted to the same by milli Q ultrapure water.
(§3) Loading and running the gel: Equal amounts of protein were loaded into the wells of the 10% SDS-PAGE gel, along with molecular weight markers, and 15 μg of total protein from the cell lysate was loaded. We then ran the gel for 45 min at 200 V.
(§4) Transferring the protein: We prepared the transfer stack as follows: negative plate, sponge, filter paper, gel, PVDF membrane, filter paper, sponge, and positive plate. The transfer was for 90 min at 200 mA.
(§5) Antibody staining: We blocked the membrane for 1 h at room temperature using 5% blocking solution, then incubated the membrane with appropriate dilutions of the primary antibody in the blocking solution overnight at 4 °C. […] Images were acquired using darkroom development techniques for chemiluminescence and analyzed by Image J.

[3] = test system: NRK−49F cells; experiment: MTT cell proliferation assay, NRK−49F cells; format: cell-based, rat; conditions: Rattus norvegicus, 24 h, read-out: IC50 NRK−49F cells (24 h)
Protocol: The effects of tanshinones (DS−1 to DS−5) on the proliferation of U−2 OS cells, HeLa cells, and NRK−49F cells were measured by the classical MTT method with minor modifications as follows. Cells were seeded at 5000 per well in 96-well plates, with each group being repeated in 5 wells, and were incubated for 12 h. DS−1 to DS−5 were added at gradient concentrations, then incubated for 24 and 48 h, respectively. Then, 20 μL MTT solution (solved in PBS, 5 mg/mL) was added to every well, and the cells were further incubated at 37 °C for 4 h until a purple precipitate was visible. The plate was centrifuged at 1000 rpm for 1 min; the supernatant was suctioned, and 150 μL of DMSO was added per well; the plate was shaken on a shaker protected from light for 15 min. We placed the plate in an enzyme marker and measured the absorbance values at a 490 nm wavelength.

[4] = test system: HeLa cells; experiment: Cell adhesion against trypsin digestion, HeLa cells; format: cell-based, human; conditions: DS-1 10.0, 15.0, 20.0 μM for 24 h
Text: Dihydrotanshinone I enhances cell adhesion and inhibits cell migration in osteosarcoma U-2 OS cell through CD44
Lanyan Fan1, 2, Chen Peng2, Xiaoping Zhu1, 2, Yawen Liang2, Ti anyi Xu2, Peng Xu1 and Shihua Wu1, 2* 1 Joint Research Centre for Engineering Biology, Zhejiang University-University of Edinburgh Institute, Zhejiang University, Haining 314400, China
2 Research Center of Siyuan Natural Pharmacy and Biotoxicology, College of Life Sciences, Zhejiang University, Hangzhou, Zhejiang Province 310058, China
* Correspondence: Drwushihua@zju.edu.cn, Shihuawu@intl.zju.edu.cn; Tel.: +86-13968131541 Legends for Supplementary figures
Figure S1. The chemical structures of major tanshinones isolated from Salvia miltiorrhiza rhizome.
Figure S2. The effects of DS-1 on HeLa cell adhesion on cell culture plates against trypsin digestion. (A) Hela cells were seeded at 80000 per well in 6-well plates for 12 h, then treated with 0, 10.0, 15.0, 20.0 μM DS-1 for 24 h.
After that, cells were washed by PBS solution and digested by 400 μL 0.25% trypsin. During the digestion, cellular morphology was recorded by inverted microscope with camera every 30 seconds. The digestion time […]
Figure S3. […]
cellular morphology was recorded by inverted microscope every 30 seconds. […]
Figure S4. […] The relative expression of CD44 was detected by Western Blot and […]

[5] = test system: p53; experiment: Western blot p53; format: cell-based, human; conditions: DS−1 2.5, 5.0, and 7.5 µM, 24 h
Protocol: as §2, §3, §4, §5

[6] = test system: MT-MMP-1; experiment: RT-PCR MT-MMP-1 mRNA in U−2 OS cells; format: cell-based, human
Protocol: as §1

SMILES: Cc1cccc2c3c(ccc12)C1=C(C(=O)C3=O)[C@@H](C)CO1 [DS−1, 15,16-Dihydrotanshinone I]
- slug mRNA, fold of the control group ([1]; DS−1 5.0 µM): 0.58 ± 0.13 fold
- slug mRNA, fold of the control group ([1]; DS−1 7.5 µM): 0.45 ± 0.07 fold
- 70 kDa CD44 protein [2]: decreased
- 80 kDa CD44 protein [2]: significantly increased
- IC50 [3]: 25 ± 1.98 µM
- cell adhesion against trypsin digestion on cell culture plates [4]: not significant
- level of p53 [5]: significantly increased
- MT-MMP-1 mRNA expression, fold ([6]; DS−1 2.5 µM): 0.92 ± 0.14 fold
- MT-MMP-1 mRNA expression, fold ([6]; DS−1 5.0 µM): 0.72 ± 0.03 fold
- MT-MMP-1 mRNA expression, fold ([6]; DS−1 7.5 µM): 0.07 ± 0.13 fold
